Among the data in PubChem BioAssay AID1902 (Broad Institute, 2009) are EC50 values, retold here.

Active and inactive are the calls of the source.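 The calls were made as follows: active = EC50 no more than a set limit of log units above the highest dose; inactive = the rest.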

Broadly, the EC50 is the midpoint of the concentration-response curve.

For this experiment, the target named is S. pyogenes SKKanGAS, kanamycin survival, BacTiterGlo, 6 h. Briefly: SKKanGAS survival reduction under kanamycin, dose response, streptokinase promoter inhibitor project, SKKanGAS strain, luminescence, dose confirmation (AID 1902).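 Also: lower survival reflects blocked streptokinase promoter driving kanamycin resistance gene.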
For `O=C(Nc1ccc(Br)c(C(F)(F)F)c1)c1ccc(C(F)(F)F)cc1`, the EC50 was 1.86 µM. As for `Cc1ccc(C(c2cc(Cl)c3cccnc3c2O)N2CCN(C)CC2)cc1` (stereo not drawn), the figure is 1.84 µM. As for `CN(C)c1nc(N/N=C/c2ccccc2O)nc(Nc2ccc(F)cc2)n1`, the figure is 3.79 µM; as for `CCCCNc1c(-c2ccc(SC3CCCCC3)cc2)nc2ccccn12`, 3.87 µM; as for `COc1ccc(O)c(/C=N/Nc2nc(Nc3ccccc3)nc(-n3nc(C)cc3C)n2)c1`, 0.868 µM. Next, `CC(C)(O)c1[nH]c2cc(F)ccc2c1C(C)(C)O`: 1.67 µM; `CCOc1ccc(-n2cc(-c3ccccc3)c3c(=S)nc[nH]c32)cc1`: 5.73 µM; `CC(=O)OCC1=C(C(=O)O)N2C(=O)C(NC(=O)c3ccc(F)cc3)C2SC1` (stereo not drawn): 2.9 µM. For the compound `CC(C)(C)c1cc[n+](C2=C([O-])c3ccccc3C(=O)/C2=N\S(=O)(=O)c2cccs2)cc1`, the EC50 was 2.02 µM. As for `O=C(N[C@H](CO)[C@H](O)c1ccc([N+](=O)[O-])cc1)C(Cl)Cl`, the figure is 0.973 µM; as for `O=C(/C=C/c1ccc(F)cc1)NC(=S)NNC(=O)c1cnccn1`, 1.96 µM. Next, `COc1ccccc1N=Nc1ccc(O)c2ncccc12`: 0.665 µM. Next, `CC(C)C[C@H](NC(=O)c1[nH]cnc1C(=O)N[C@H](C)c1ccccc1)C(=O)OC(C)(C)C`: 6.02 µM; `CCC(=O)N(CCC(Cc1ccccc1)c1ccc2c(c1)OCO2)Cc1ccccc1F` (stereo not drawn): 6.5 µM. Regarding `C=C(C)CNC(=S)NNC(=O)CCn1c2ccc(Cl)cc2c2cc(Cl)ccc21`, the EC50 was 2.31 µM. As for `O=S(=O)(Nc1nccs1)c1ccc(Nc2nnc(-c3ccccc3)c3ccccc23)cc1`, the figure is 2.51 µM; as for `O=C(CN1C(=O)COc2ccc(S(=O)(=O)N3CCCCC3)cc21)NCc1ccc(F)cc1`, > 15 µM (inactive); as for `O=C(/C=C/c1ccco1)Oc1cc(Br)cc(/C=N/NC(=O)c2ccccc2O)c1`, 1.11 µM. On to `CCn1c(C)nc2cc(C(=O)NNC(=S)NC(=O)c3ccc(OC)cc3)ccc21`, for which the EC50 was 5.87 µM. As for `O=C(O)c1ccc(N/N=C/c2ccc(-c3cc(Cl)ccc3Cl)o2)cc1`, the figure is 2.48 µM.

As to `CCOC(=O)c1c(NC(=O)CCS(=O)(=O)c2ccccc2)sc2c1CCN(C)C2`, the EC50 was > 15 µM (inactive).

As for `O=S(=O)(Nc1ccc(O)c(Sc2nc3ccccc3s2)c1)c1cccc2ccccc12`, the EC50 was 3.09 µM. As for `CCOC(=O)N1CCN(C(=O)c2ccc3c(c2)N(C)C(=O)/C(=C\c2ccc(OCC)c(OC)c2)S3)CC1`, the EC50 was 0.593 µM. `Cc1c(CCC(=O)O)c(=O)oc2cc3occ(-c4ccc(Cl)cc4)c3cc12`: the EC50 is 3.46 µM. For `COc1ccc2nc(-n3c(C)ccc3C)sc2c1`, the EC50 was > 15 µM (inactive). Next, `O=[N+]([O-])c1cc(S(=O)(=O)C(F)(F)F)ccc1Sc1nc2ccccc2[nH]1`: 4.1 µM. As for `CCN1C(=O)C(CC(=O)Nc2ccc(Br)cc2)N(CCCc2ccccc2)C1=S` (stereo not drawn), the figure is 2.9 µM; as for `COc1cc(NC(=O)CSc2ncnc3sc4c(c23)CCCC4)c(C(=O)O)cc1OC`, 12 µM. Next, `O=C(COc1ccc(Cl)cc1Cl)NNC(=S)NC(=O)c1ccco1`: 0.102 µM. For `CCCC1CC(C(=O)NC(C(C)Cl)C2OC(SC)C(O)C(O)C2O)N(C)C1` (stereo not drawn), the EC50 was less than 0.06 µM. Next, `COc1ccc(C(=O)Nc2cccc(/C=C(\CCC(=O)O)c3nc4ccccc4s3)c2)cc1`: 8.09 µM; `Cc1nc(Nc2nc(-c3ccccc3)cc(=O)[nH]2)nc2ccccc12`: 5.67 µM. Next, `Cn1cccc1CC(=O)NNC(=S)NC(=O)c1ccccc1Br`: 1.64 µM; `CCOc1ccc(C(=O)N/N=C(\c2ccccc2)c2ccccn2)cc1`: 5.71 µM; `CCOC(=O)c1csc(NC(=O)c2ccc3c(c2)OCCO3)n1`: > 15 µM (inactive). Next, `CC(C)(O)c1ccccc1CC[C@@H](SCC1(CC(=O)O)CC1)c1cccc(/C=C/c2ccc3ccc(Cl)cc3n2)c1`: 1.44 µM; `CCCCNC(=O)c1onc(CSc2ccc(C(C)C)cc2)c1C(=O)O`: 4.13 µM; `Cc1cccc(Cc2cnc(N3C(=N)SC(C)C3=O)s2)c1` (stereo not drawn): 0.131 µM. Turning to `Cc1[nH]n(-c2ccc(Br)cc2)c(=O)c1/C=N/NC(=O)c1ccccc1`, the EC50 is 0.428 µM.

In the case of `COc1ccc(-c2cc3nc[nH]c(=O)c3s2)cc1`, the EC50 was 8.36 µM. Next, `CCOC(=O)c1cnc(-n2nc(C)cc2C)nc1Nc1ccc(C)cc1`: 0.101 µM; `O=C(CN1c2ccccc2Sc2ccccc21)NNC(=O)Nc1cccc(Cl)c1`: 4.97 µM. As for `COc1cccc(C(=O)N/N=C(/c2ccccc2)c2ccccn2)c1`, the figure is 8.86 µM. As for `O=C(Nc1ccc2nc(-c3ccc4nc[nH]c4c3)[nH]c2c1)c1cccs1`, the figure is 15.7 µM. Take `COc1ccc(C(Nc2cc(C)ccn2)c2ccc3ccc(C)nc3c2O)cc1` (stereo not drawn): the EC50 is 12.5 µM. Next, `CN(C(=O)CSc1nc(-c2ccc(C(C)(C)C)cc2)c(C#N)c(=O)[nH]1)C1CCCCC1`: 1.36 µM; `Oc1[nH]c2ccccc2c1N=NC(=S)NCCc1ccccc1`: 4.39 µM. Take `COc1ccc(-c2n[nH]c(C)c2-c2ccc(Cl)cc2)c(O)c1`: the EC50 is 6.52 µM. As for `CC(C)c1nc(NCc2ccccc2)c(C#N)c2c1CCCC2`, the figure is 3.55 µM. For the compound `Cc1ccccc1C(=O)Nc1nc(=S)ss1`, the EC50 is 2.46 µM. On to `CC1Oc2cc3c(-c4c(O)cc(O)c5c(O)c6c(cc45)OC(C)C(C)C6=O)c(O)cc(O)c3c(O)c2C(=O)C1C` (stereo not drawn), for which the EC50 is 0.319 µM. Turning to `CC(C)(C)N/N=C1\CC(c2ccccc2)Oc2ccccc21` (stereo not drawn), the EC50 is 3.03 µM. For `Cc1nnc(SCC2=C(C(=O)O)N3C(=O)C(NC(=O)Cn4ncc(Cl)c4C)C3SC2)s1` (stereo not drawn), the EC50 is less than 0.06 µM.

With `COc1ccc(-c2oc(NC(=O)CCl)c(C#N)c2-c2ccc(OC)cc2)cc1`, the EC50 is 3.11 µM. On to `Cc1ccc2ccc(C(Nc3cccc(C(F)(F)F)c3)c3cccnc3)c(O)c2n1` (stereo not drawn), for which the EC50 was 1.12 µM. On to `Cc1ccccc1NS(=O)(=O)c1ccc(C)c(C(=O)N2CCOCC2)c1`, for which the EC50 was > 15 µM (inactive).

Take `O=c1c2cc(Br)ccc2nc(-c2cccc(Cl)c2)n1O`: the EC50 was 1.09 µM. Next, `COc1ccc(C2CC(O)(c3ccccc3)Oc3c(C)ccc(C)c32)cc1` (stereo not drawn): > 15 µM (inactive); `COc1cccc(C(=O)Nc2nnc(-c3cccs3)o2)c1`: 3.34 µM; `CCCCCC(=O)NNC(=O)c1c(O)c2ccccc2n(CC)c1=O`: 1.36 µM. As for `N/C(=N\NC(=O)c1sccc1OCc1ccc(Cl)cc1Cl)c1ccccn1`, the figure is 3.32 µM.

On to `CCC[N+]1(CC#CC2(O)CCCCC2)CCOCC1`, for which the EC50 was > 15 µM (inactive).

For the compound `CCC1CCCCN1c1cc(C)nc2cc(-c3cccc(C)c3)nn12` (stereo not drawn), the EC50 was 6.59 µM. For the compound `Cc1cccc(OCCn2c(NC(=O)c3ccco3)nc3ccccc32)c1`, the EC50 is 2.69 µM. `Oc1c(Cl)cc(Cl)cc1C(C#Cc1ccccc1)N1CCOCC1` (stereo not drawn): the EC50 was 12.2 µM. As for `CCCCn1c(=O)c(C(=O)NCc2ccccc2)c(O)c2ccccc21`, the figure is 6.85 µM; as for `Cn1ncc2c(Nc3ccc(Br)cc3)nc(Nc3ccc(Br)cc3)nc21`, 1.08 µM; as for `Cc1cccc(NC(=O)C(=O)NNC(=O)c2ccc(C(C)(C)C)cc2)c1`, 5.41 µM. With `CCOC(=O)Cc1cc(=O)n2[nH]cc(-c3cccc(Br)c3)c2n1`, the EC50 is 3.56 µM. Next, `CC(=O)Nc1nc(NC(=O)/C=C/c2ccccc2)n(-c2ccccc2)n1`: 1.74 µM; `Oc1c(Br)cc(Br)cc1/C=N/Nc1ccc(Cl)nn1`: 0.481 µM; `CCOC(=O)c1cccc(N2C(N)=NC(N)=NC2(C)C)c1`: 0.109 µM. As for `Cc1[nH]c2ccccc2c1/C=N/Nc1nc2ccccc2[nH]1`, the figure is 4.87 µM. As for `CCCCn1c(O)c(N=NC(=O)c2ccccc2NS(=O)(=O)c2cccs2)c2ccccc21`, the figure is 5.06 µM; as for `Cc1cc(Cl)c2oc(C(=O)N3CCC(O)(c4ccccc4)CC3)c(C)c2c1`, 7.31 µM.

With `CC12CCC(CC1)C(C)(C)O2`, the EC50 is > 15 µM (inactive). Next, `O=C(Nc1nnc(C2CC2)s1)c1cc(-c2ccccc2)nn1-c1ccccc1`: 6.47 µM; `COc1c(N2CCN(C(=S)NC3CC4CCC3C4)C(C)C2)c(F)cc2c(=O)c(C(=O)O)cn(C3CC3)c12` (stereo not drawn): 3.09 µM; `Cc1ccc(Nc2nc3ccccc3[nH]2)nc1`: 1.28 µM.

For the compound `Cc1oc2c(c1C(=O)NCc1cccnc1)C(=O)c1ccccc1C2=O`, the EC50 was 0.882 µM. For the compound `CCOc1ccc2nc(NC(=O)c3ccccn3)sc2c1`, the EC50 was 1.79 µM.

On to `Cc1nn(-c2ccccc2)c(Cl)c1/C=N/NC(=O)c1ccc(NS(=O)(=O)c2cccs2)cc1`, for which the EC50 was 2.34 µM. Next, `CCOC(=O)C(=NC(C)(C)C)NNc1cc(Cl)ccc1Cl`: 2.9 µM. As for `CC[C@H]1OC(=O)C[C@@H](O)[C@H](C)[C@@H](O[C@@H]2O[C@H](C)C[C@H](N(C)C)[C@H]2O)[C@@H](CC=O)C[C@@H](C)C(=O)C=C[C@]2(C)O[C@H]2[C@@H]1C`, the figure is less than 0.06 µM; as for `C/C(N)=C(/C#N)C(=O)CSc1nc2cc(Cl)ccc2c(=O)n1Cc1ccco1`, 8.74 µM. Next, `CC(C)(C)NS(=O)(=O)c1ccc(NS(=O)(=O)Cc2ccccc2)cc1`: > 15 µM (inactive).

On to `Cn1ccc(=Nc2ccc(NC(=O)c3ccc(N=c4ccn(C)c5ccc([N+](=O)[O-])cc45)cc3)cc2)cc1`, for which the EC50 is 0.357 µM.

For the compound `COc1ccc(C(=O)Nc2nnc(-c3ccccc3)o2)cc1OC`, the EC50 was 5.56 µM. As for `CC(C)c1ccc(-n2cccc2/C=C2/C(=N)N3C=CSC3=NC2=O)cc1`, the figure is 3.28 µM. Next, `CC(C)N=c1cc2n(-c3ccc(Cl)cc3)c3ccccc3nc-2cc1Nc1ccc(Cl)cc1`: 1.24 µM. Regarding `C/C(N)=C(/C#N)C(=O)COC(=O)c1cc(-c2ccc(Br)cc2)nc2ccccc12`, the EC50 was 9.97 µM. As for `COCCn1c(SCc2nc3sc(C(=O)OC)c(C)c3c(=O)[nH]2)nc2ccccc21`, the figure is 3.54 µM; as for `Cc1ccc2c(c1)C(=O)CC1(CCC(C(C)(C)C)CC1)O2` (stereo not drawn), 3.01 µM.
